This test deals with KHK (Homo sapiens (Human), UniProt P50053). Kind of test: In Vitro KHK Enzyme Assay (HTMS).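 Note: primary screen measuring inhibition of KHK-catalysed conversion of D-fructose into fructose 1-phosphate.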 In kind it is biochemical. To be noted: 200 μM fructose, 100 μM ATP, 2 nM KHK, 60 min at 25° C.; Fructose-1-P detected by high throughput mass spectrometry.

This passage reports IC50 results from patent US8822447B2, “Indazole compounds useful as ketohexokinase inhibitors” (Janssen Pharmaceutica NV, priority 2010, dated 2014).

Sequence of KHK (P50053 whole entry): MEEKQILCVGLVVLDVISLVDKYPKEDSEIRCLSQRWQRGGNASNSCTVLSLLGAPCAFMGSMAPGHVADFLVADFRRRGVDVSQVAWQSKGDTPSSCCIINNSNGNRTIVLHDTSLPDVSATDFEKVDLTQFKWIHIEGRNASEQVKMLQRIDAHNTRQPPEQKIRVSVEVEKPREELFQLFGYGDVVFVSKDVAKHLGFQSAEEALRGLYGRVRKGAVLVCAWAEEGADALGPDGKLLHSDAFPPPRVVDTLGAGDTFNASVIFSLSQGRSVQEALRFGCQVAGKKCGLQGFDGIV

`CSc1nn(-c2ccccc2)c2cc(C(O)C3CCNCC3)ccc12` (stereo not shown) [Compound 136, (3-Methylsulfanyl-1-phenyl-1H-indazol-6-yl)-piperidin-4-yl-methanol] registered an IC50 above 2000 nM.
Under `CSc1nn(-c2ccccc2)c2cc(C(O)c3ccncc3)ccc12` (stereo not shown) [Compound 137, (3-Methylsulfanyl-1-phenyl-1H-indazol-6-yl)-pyridin-4-yl-methanol] stands above 2000 nM.
Under `CSc1nn(-c2ccc(F)cc2)c2cc(C3=CCNCC3)ccc12` [Compound 139, 1-(4-Fluoro-phenyl)-3-methylsulfanyl-6-(1,2,3,6-tetrahydro-pyridin-4-yl)-1H-indazole] stands 230 nM.
For `COc1ccc(-n2nc(SC)c3ccc(C4=CCNCC4)cc32)cc1` [Compound 140, 1-(4-Methoxy-phenyl)-3-methylsulfanyl-6-(1,2,3,6-tetrahydro-pyridin-4-yl)-1H-indazole] the value was 90 nM; for `CSc1nn(-c2ccccc2)c2cc(C=CC3CCNCC3)ccc12` [Compound 141, 3-Methylsulfanyl-1-phenyl-6-(2-piperidin-4-yl-vinyl)-1H-indazole], 230 nM.
Take `CSc1nn(-c2ccccc2)c2cc(C(=O)C3CCNCC3)ccc12` [Compound 142, (3-Methylsulfanyl-1-phenyl-1H-indazol-6-yl)-piperidin-4-yl-methanone]: the IC50 worked out at 670 nM.
For `CSc1nn(-c2ccc([N+](=O)[O-])cc2)c2cc(C3=CCN(C(=O)CN)CC3)ccc12` [Compound 144, 2-Amino-1-{4-[3-methylsulfanyl-1-(4-nitro-phenyl)-1H-indazol-6-yl]-3,6-dihydro-2H-pyridin-1-yl}-ethanone] the value was above 10000 nM; for `CSc1nn(-c2cccc(C)c2)c2cc(C3=CCNCC3)ccc12` [Compound 147, 3-Methylsulfanyl-6-(1,2,3,6-tetrahydropyridin-4-yl)-1-(3-methylphenyl)-1H-indazole], 30 nM; for `CSc1nn(-c2ccccc2)c2cc(C3=CCN(C(=O)CCN)CC3)ccc12` [Compound 149, 3-Amino-1-[4-(3-methylsulfanyl-1-phenyl-1H-indazol-6-yl)-3,6-dihydro-2H-pyridin-1-yl]-propan-1-one], 480 nM.
`CSc1nn(-c2ccccc2)c2cc(C=Cn3cncn3)ccc12` [Compound 152, 3-Methylsulfanyl-1-phenyl-6-(2-[1,2,4]triazol-1-yl-vinyl)-1H-indazole] registered an IC50 above 10000 nM.
For `CSc1nn(-c2ccccc2)c2cc(C=CC3CCNCC3)ccc12` [Compound 153, 3-Methylsulfanyl-1-phenyl-6-(2-piperidin-4-yl-vinyl)-1H-indazole], half-maximal inhibition (IC50) required 400 nM.
For `CSc1nn(-c2ccccc2)c2cc(C=Cc3ccncc3)ccc12` [Compound 154, 3-Methylsulfanyl-1-phenyl-6-(2-pyridin-4-yl-vinyl)-1H-indazole] the value was above 10000 nM; for `CSc1nn(-c2ccccc2)c2cc(C=Cc3ccccn3)ccc12` [Compound 155, 3-Methylsulfanyl-1-phenyl-6-(2-pyridin-2-yl-vinyl)-1H-indazole], above 10000 nM; for `CSc1nn(-c2ccccc2)c2cc(NC(=O)C3(N)CCNCC3)ccc12` [Compound 157, 4-Amino-piperidine-4-carboxylic acid (3-methylsulfanyl-1-phenyl-1H-indazol-6-yl)-amide], 300 nM.
For `CSc1nn(-c2ccccc2)c2cc(NC(=O)C3(C)CCNCC3)ccc12` [Compound 158, 4-Methyl-piperidine-4-carboxylic acid (3-methylsulfanyl-1-phenyl-1H-indazol-6-yl)-amide] the value was 700 nM; for `CSc1nn(-c2ccccc2)c2cc(C(=O)CC3CCNCC3)ccc12` [Compound 160, 1-(3-Methylsulfanyl-1-phenyl-1H-indazol-6-yl)-2-piperidin-4-yl-ethanone], 1000 nM; for `CSc1nn(-c2ccccc2)c2cc(C(=O)CC3CCCNC3)ccc12` (stereo not shown) [Compound 161, 1-(3-Methylsulfanyl-1-phenyl-1H-indazol-6-yl)-2-piperidin-3-yl-ethanone], 6620 nM.
For `CSc1nn(-c2ccccc2)c2cc(C(=O)CC3CCCN3)ccc12` (stereo not shown) [Compound 163, 1-(3-Methylsulfanyl-1-phenyl-1H-indazol-6-yl)-2-pyrrolidin-2-yl-ethanone] the value was 8280 nM.
`CSc1nn(-c2ccccc2)c2cc(-c3ccncc3)ccc12` [Compound 164, 3-Methylsulfanyl-1-phenyl-6-pyridin-4-yl-1H-indazole] showed an IC50 above 10000 nM.
`CSc1nn(-c2ccccc2)c2cc(NCCN3CCNCC3)ccc12` [Compound 165, (3-Methylsulfanyl-1-phenyl-1H-indazol-6-yl)-(2-piperazin-1-yl-ethyl)-amine] gave an IC50 of 890 nM.
For `CSc1nn(-c2ccccc2)c2cc(NCCC3CCNCC3)ccc12` [Compound 166, (3-Methylsulfanyl-1-phenyl-1H-indazol-6-yl)-(2-piperidin-4-yl-ethyl)-amine] the value was 600 nM.
For the compound `CSc1nn(-c2ccccc2)c2cc(NC(=O)C3(F)CCNCC3)ccc12` [Compound 167, 4-Fluoro-piperidine-4-carboxylic acid (3-methylsulfanyl-1-phenyl-1H-indazol-6-yl)-amide], the IC50 came to 660 nM.
Under `CSc1nn(-c2ccccc2)c2cc(C(=O)C(=O)N3CCNCC3)ccc12` [Compound 168, 1-(3-Methylsulfanyl-1-phenyl-1H-indazol-6-yl)-2-piperazin-1-yl-ethane-1,2-dione] stands 4120 nM; under `CSc1nn(-c2ccccc2)c2cc(C(=O)c3ccc4ncn(C)c4c3)ccc12` [Compound 171, (3-Methyl-3H-benzoimidazol-5-yl)-(3-methylsulfanyl-1-phenyl-1H-indazol-6-yl)-methanone], above 10000 nM; under `CSc1nn(-c2ccccc2)c2cc(NC(=O)C3(c4ccccc4)CCNCC3)ccc12` [Compound 172, 4-Phenyl-piperidine-4-carboxylic acid (3-methylsulfanyl-1-phenyl-1H-indazol-6-yl)-amide], 2150 nM.
For `COc1ccc(-n2nc(SC)c3ccc(C(=O)c4ccc5ncn(C)c5c4)cc32)cc1` [Compound 173, [1-(4-Methoxy-phenyl)-3-methylsulfanyl-1H-indazol-6-yl]-(3-methyl-3H-benzoimidazol-5-yl)-methanone] the value was above 10000 nM; for `CSc1nn(-c2ccccc2)c2cc(C(=O)c3ccc4nonc4c3)ccc12` [Compound 174, Benzo[1,2,5]oxadiazol-5-yl-(3-methylsulfanyl-1-phenyl-1H-indazol-6-yl)-methanone], above 10000 nM.
Under `CSc1nn(-c2ccccc2)c2cc(C=CC3CCCN3)ccc12` (stereo not shown) [Compound 175, 3-Methylsulfanyl-1-phenyl-6-(2-pyrrolidin-2-yl-vinyl)-1H-indazole] stands 610 nM; under `CSc1nn(-c2ccccc2)c2cc(C=CC3CCCNC3)ccc12` (stereo not shown) [Compound 176, 3-Methylsulfanyl-1-phenyl-6-(2-piperidin-3-yl-vinyl)-1H-indazole], 790 nM.
Compound `CSc1nn(-c2ccccc2)c2cc(C=Cc3ccc(C)nc3)ccc12` [Compound 178, 6-[2-(6-Methyl-pyridin-3-yl)-vinyl]-3-methylsulfanyl-1-phenyl-1H-indazole] came in with an IC50 above 10000 nM.
Under `CSc1nn(-c2cccc(F)c2)c2cc(C3=CCNCC3)ccc12` [Compound 179, 1-(3-Fluoro-phenyl)-3-methylsulfanyl-6-(1,2,3,6-tetrahydro-pyridin-4-yl)-1H-indazole] stands 40 nM; under `CSc1nn(-c2ccccc2C)c2cc(C3=CCNCC3)ccc12` [Compound 180, 3-Methylsulfanyl-6-(1,2,3,6-tetrahydro-pyridin-4-yl)-1-o-tolyl-1H-indazole], above 10000 nM; under `CSc1nn(-c2ccc(C)cc2)c2cc(C3=CCNCC3)ccc12` [Compound 184, 3-Methylsulfanyl-6-(1,2,3,6-tetrahydro-pyridin-4-yl)-1-p-tolyl-1H-indazole], 40 nM.
The compound `CSc1nn(-c2ccccc2)c2cc(CCC3CCNCC3)ccc12` [Compound 185, 3-Methylsulfanyl-1-phenyl-6-(2-piperidin-4-yl-ethyl)-1H-indazole] came in with an IC50 of 920 nM.

Broadly, the IC50 is the midpoint of a concentration-inhibition curve. Low values mean greater potency in that assay, high ones weaker potency in that assay.
